Assay results taken from patent US20260215428A1, “WEED CONTROL METHOD” (SYNGENTA CROP PROTECTION AG, priority 2023, published 2026).

What was measured:
Format in all cases: in vivo
Settings in all cases: 21 days after application
[1] = tested on: Sorghum halepense; test: Further glasshouse test versus other ACCase-inhibiting herbicides, Table B2-4
Description: (§1) Further tests were employed to test the efficacy of a compound of Formula I versus other ACCase-inhibiting herbicides. The five main targets were Lolium multiflorum, Eleusine indica, Digitaria insularis, Sorghum halepense and Echinochloa crus-galli. Collectively, the populations contained all the major target-site resistance mutations affecting ACCase herbicides. Two L. multiflorum (LM-NTSR-1 and LM-NTSR-2) and one E. crus-galli (ECG-NTSR-1) populations were characterised exclusively by non-target-site resistance (“NTSR”). The target-site resistant L. multiflorum and E. indication populations were 100% homozygous for different ACCase mutations whilst the D. insularis, S. halepense and E. crus-galli samples contained a mixture of homozygous wild and mutant individuals at different genotypic frequencies. Additional underlying NTSR cannot be ruled out in the populations characterised by target-site resistance.
(§2) Around 50 seeds of each of the 24 weed populations were sown in 12-cm pots containing a mixture of peat and compost in a 1:1 ratio. The pots were watered, fertilised and kept in controlled glasshouse conditions set at 24° C./16 hr day, 18° C. night, 65% relative humidity, and a photon flux density of approximately 250 μmol quanta m^−2 s^−1 for Lolium multiflorum. The E. indica, D. insularis, S. halepense and E. crus-galli plants were kept in a separate glasshouse bay characterised by a 17 H photoperiod of 180 μmol m^−2 s^−1 with temperatures of 25° C. day and 19° C. night and 65% relative humidity. When the plants were at the two to four-leaf stage, they were treated with the various ACCase-inhibiting herbicides at 0, 15, 30, 60, 120 and 240 g ai ha^−1 in a spray cabinet mounted with a single mobile Teejet flat fan nozzle (11002VS) calibrated to deliver 200 L ha^−1 at 200 kPa. The L. multiflorum populations were treated by a compound of Formula Ic, clodinafop-propargyl, pinoxaden, cycloxydim and clethodim and the warm season grass weeds E. indica, D. insularis, S. halepense and E. crus-galli were sprayed with a Compound Ic and the commonly employed haloxyfop-methyl and clethodim. Three replicate pots were used per population. Plants were assessed for visual damage compared to the untreated control 21 days after application (0=0% damage; 100=100% damage).

[2] = tested on: Digitaria insularis; test: Further glasshouse test versus other ACCase-inhibiting herbicides, Table B2-3
Description: as §1, §2

[3] = tested on: Echinochloa Crus-galli; test: Further glasshouse test versus other ACCase-inhibiting herbicides, Table B2-5
Description: as §1, §2

[4] = tested on: Eleusine indica; test: Further glasshouse test versus other ACCase-inhibiting herbicides, Table B2-2
Description: as §1, §2

[5] = tested on: Lolium multiflorum; test: Further glasshouse test versus other ACCase-inhibiting herbicides, Table B2-1
Description: as §1, §2

Structure (SMILES): COC(=O)C(C)Oc1ccc(Oc2ncc(C(F)(F)F)cc2Cl)cc1 (stereo not shown) [Haloxyfop-p-methyl, haloxyfop-methyl]
- visual damage ([1]; biotype Sensitive, 15 g/ha): 93%
- visual damage ([1]; biotype Sensitive, 30 g/ha): 100%
- visual damage ([1]; biotype Sensitive, 60 g/ha): 100%
- visual damage ([1]; biotype Sensitive, 120 g/ha): 100%
- visual damage ([1]; biotype Sensitive, 240 g/ha): 100%
- visual damage ([1]; biotype W2027C, 15 g/ha): 38%
- visual damage ([1]; biotype W2027C, 30 g/ha): 50%
- visual damage ([1]; biotype W2027C, 60 g/ha): 68%
- visual damage ([1]; biotype W2027C, 120 g/ha): 68%
- visual damage ([1]; biotype W2027C, 240 g/ha): 78%
- visual damage ([2]; biotype Sensitive, 15 g/ha): 100%
- visual damage ([2]; biotype Sensitive, 30 g/ha): 100%
- visual damage ([2]; biotype Sensitive, 60 g/ha): 100%
- visual damage ([2]; biotype Sensitive, 120 g/ha): 100%
- visual damage ([2]; biotype Sensitive, 240 g/ha): 100%
- visual damage ([2]; biotype W2027C, 15 g/ha): 76%
- visual damage ([2]; biotype W2027C, 30 g/ha): 53%
- visual damage ([2]; biotype W2027C, 60 g/ha): 93%
- visual damage ([2]; biotype W2027C, 120 g/ha): 100%
- visual damage ([2]; biotype W2027C, 240 g/ha): 100%
- visual damage ([3]; biotype Sensitive, 15 g/ha): 100%
- visual damage ([3]; biotype Sensitive, 30 g/ha): 100%
- visual damage ([3]; biotype Sensitive, 60 g/ha): 100%
- visual damage ([3]; biotype Sensitive, 120 g/ha): 100%
- visual damage ([3]; biotype Sensitive, 240 g/ha): 100%
- visual damage ([3]; biotype W2027C, 15 g/ha): 3%
- visual damage ([3]; biotype W2027C, 30 g/ha): 75%
- visual damage ([3]; biotype W2027C, 60 g/ha): 73%
- visual damage ([3]; biotype W2027C, 120 g/ha): 100%
- visual damage ([3]; biotype W2027C, 240 g/ha): 100%
- visual damage ([3]; population ECG-NTSR-1 (non-target-site resistance), 15 g/ha): 73%
- visual damage ([3]; population ECG-NTSR-1 (non-target-site resistance), 30 g/ha): 87%
- visual damage ([3]; population ECG-NTSR-1 (non-target-site resistance), 60 g/ha): 100%
- visual damage ([3]; population ECG-NTSR-1 (non-target-site resistance), 120 g/ha): 100%
- visual damage ([3]; population ECG-NTSR-1 (non-target-site resistance), 240 g/ha): 100%
- visual damage ([4]; biotype D2078G, 15 g/ha): 0%
- visual damage ([4]; biotype D2078G, 30 g/ha): 0%
- visual damage ([4]; biotype D2078G, 60 g/ha): 60%
- visual damage ([4]; biotype D2078G, 120 g/ha): 95%
- visual damage ([4]; biotype D2078G, 240 g/ha): 88%
- visual damage ([4]; biotype G2096A, 15 g/ha): 3%
- visual damage ([4]; biotype G2096A, 30 g/ha): 3%
- visual damage ([4]; biotype G2096A, 60 g/ha): 23%
- visual damage ([4]; biotype G2096A, 120 g/ha): 30%
- visual damage ([4]; biotype G2096A, 240 g/ha): 53%
- visual damage ([4]; biotype I2041N, 15 g/ha): 0%
- visual damage ([4]; biotype I2041N, 30 g/ha): 7%
- visual damage ([4]; biotype I2041N, 60 g/ha): 0%
- visual damage ([4]; biotype I2041N, 120 g/ha): 10%
- visual damage ([4]; biotype I2041N, 240 g/ha): 0%
- visual damage ([4]; biotype Sensitive, 15 g/ha): 100%
- visual damage ([4]; biotype Sensitive, 30 g/ha): 100%
- visual damage ([4]; biotype Sensitive, 60 g/ha): 100%
- visual damage ([4]; biotype Sensitive, 120 g/ha): 100%
- visual damage ([4]; biotype Sensitive, 240 g/ha): 100%
- visual damage ([4]; biotype W2027C, 15 g/ha): 0%
- visual damage ([4]; biotype W2027C, 30 g/ha): 0%
- visual damage ([4]; biotype W2027C, 60 g/ha): 17%
- visual damage ([4]; biotype W2027C, 120 g/ha): 30%
- visual damage ([4]; biotype W2027C, 240 g/ha): 33%

Structure (SMILES): CCc1cc(C)cc(CC)c1-c1c(OC(=O)C(C)(C)C)n2n(c1=O)CCOCC2 [Pinoxaden, pinoxaden]
- visual damage ([5]; biotype C2088R, 15 g/ha): 0%
- visual damage ([5]; biotype C2088R, 30 g/ha): 0%
- visual damage ([5]; biotype C2088R, 60 g/ha): 0%
- visual damage ([5]; biotype C2088R, 120 g/ha): 3%
- visual damage ([5]; biotype C2088R, 240 g/ha): 30%
- visual damage ([5]; biotype D2078G, 15 g/ha): 3%
- visual damage ([5]; biotype D2078G, 30 g/ha): 3%
- visual damage ([5]; biotype D2078G, 60 g/ha): 10%
- visual damage ([5]; biotype D2078G, 120 g/ha): 45%
- visual damage ([5]; biotype D2078G, 240 g/ha): 90%
- visual damage ([5]; biotype I1781L, 15 g/ha): 7%
- visual damage ([5]; biotype I1781L, 30 g/ha): 7%
- visual damage ([5]; biotype I1781L, 60 g/ha): 27%
- visual damage ([5]; biotype I1781L, 120 g/ha): 73%
- visual damage ([5]; biotype I1781L, 240 g/ha): 98%
- visual damage ([5]; biotype Sensitive, 15 g/ha): 100%
- visual damage ([5]; biotype Sensitive, 30 g/ha): 100%
- visual damage ([5]; biotype Sensitive, 60 g/ha): 100%
- visual damage ([5]; biotype Sensitive, 120 g/ha): 100%
- visual damage ([5]; biotype Sensitive, 240 g/ha): 100%
- visual damage ([5]; biotype W1999S, 15 g/ha): 0%
- visual damage ([5]; biotype W1999S, 30 g/ha): 0%
- visual damage ([5]; biotype W1999S, 60 g/ha): 0%
- visual damage ([5]; biotype W1999S, 120 g/ha): 7%
- visual damage ([5]; biotype W1999S, 240 g/ha): 33%
- visual damage ([5]; biotype W2027C, 15 g/ha): 0%
- visual damage ([5]; biotype W2027C, 30 g/ha): 10%
- visual damage ([5]; biotype W2027C, 60 g/ha): 62%
- visual damage ([5]; biotype W2027C, 120 g/ha): 93%
- visual damage ([5]; biotype W2027C, 240 g/ha): 100%
- visual damage ([5]; population LM-NTSR-1 (non-target-site resistance), 15 g/ha): 30%
- visual damage ([5]; population LM-NTSR-1 (non-target-site resistance), 30 g/ha): 85%
- visual damage ([5]; population LM-NTSR-1 (non-target-site resistance), 60 g/ha): 97%
- visual damage ([5]; population LM-NTSR-1 (non-target-site resistance), 120 g/ha): 100%
- visual damage ([5]; population LM-NTSR-1 (non-target-site resistance), 240 g/ha): 100%
- visual damage ([5]; population LM-NTSR-2 (non-target-site resistance), 15 g/ha): 0%
- visual damage ([5]; population LM-NTSR-2 (non-target-site resistance), 30 g/ha): 0%
- visual damage ([5]; population LM-NTSR-2 (non-target-site resistance), 60 g/ha): 0%
- visual damage ([5]; population LM-NTSR-2 (non-target-site resistance), 120 g/ha): 65%
- visual damage ([5]; population LM-NTSR-2 (non-target-site resistance), 240 g/ha): 53%
